Assay results as given in BindingDB's records for doi:10.1124/mol.59.3.420 (The R. W. Johnson Pharmaceutical Research Institute, 2001).

Key:
Histamine H4 receptor = Histamine H4 receptor (Homo sapiens, UniProt Q9H3N8)
Histamine H3 receptor = Histamine H3 receptor (Homo sapiens, UniProt Q9Y5N1)
Sequence of Histamine H3 receptor (Q9Y5N1 whole entry): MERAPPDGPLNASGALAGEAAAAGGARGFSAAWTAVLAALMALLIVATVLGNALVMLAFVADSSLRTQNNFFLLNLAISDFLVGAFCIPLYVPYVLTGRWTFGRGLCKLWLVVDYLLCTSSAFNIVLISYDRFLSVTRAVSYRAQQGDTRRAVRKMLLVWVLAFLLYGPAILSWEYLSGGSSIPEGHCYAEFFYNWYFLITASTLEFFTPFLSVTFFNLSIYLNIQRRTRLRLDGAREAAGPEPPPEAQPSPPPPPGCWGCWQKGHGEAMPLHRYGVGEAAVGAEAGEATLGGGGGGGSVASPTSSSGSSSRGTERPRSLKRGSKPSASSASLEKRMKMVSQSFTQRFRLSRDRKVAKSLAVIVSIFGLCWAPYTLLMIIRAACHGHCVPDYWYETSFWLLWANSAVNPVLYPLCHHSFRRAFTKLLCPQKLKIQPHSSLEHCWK

Sequence of Histamine H4 receptor (Q9H3N8 whole entry): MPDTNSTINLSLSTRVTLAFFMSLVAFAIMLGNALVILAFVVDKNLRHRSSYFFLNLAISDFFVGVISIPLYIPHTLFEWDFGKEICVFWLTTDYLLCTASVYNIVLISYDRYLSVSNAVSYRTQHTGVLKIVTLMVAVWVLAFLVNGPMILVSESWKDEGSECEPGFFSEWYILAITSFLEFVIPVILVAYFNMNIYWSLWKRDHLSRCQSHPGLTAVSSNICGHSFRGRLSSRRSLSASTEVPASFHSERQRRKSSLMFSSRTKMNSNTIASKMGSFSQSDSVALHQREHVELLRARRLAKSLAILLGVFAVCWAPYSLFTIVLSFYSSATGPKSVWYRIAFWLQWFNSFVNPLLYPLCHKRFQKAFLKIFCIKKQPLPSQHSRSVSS

SMILES | Ki (Histamine H4 receptor) [µM] | Ki (Histamine H3 receptor) [µM]
CN/C(=N/CCSCc1nc[nH]c1C)NC#N | > 10 | –
CN/C([CH-][N+](=O)[O-])=[NH+]\CCSCc1ccc(CN(C)C)o1 | > 10 | > 10
C[C@@H](N)Cc1c[nH]cn1 | 0.146 | –
CNC(=S)NCCCCc1cnc[nH]1 [1-[4-(1H-imidazol-5-yl)butyl]-3-methylthiourea] | – | 0.084
N=C(N)SCCc1cnc[nH]1 [2-(3H-imidazol-4-yl)ethylsulfanylmethanimidamide] | 0.0027 | 0.0003
Cc1[nH]cnc1CSCCNC(=N)NCCCc1c[nH]cn1 [2-[3-(1H-imidazol-5-yl)propyl]-1-(2-{[(5-methyl-1H-imidazol-4-yl)methyl]sulfanyl}ethyl)guanidine] | 0.0123 | 0.067
c1nc(CC2CCNCC2)c[nH]1 [4-(1H-imidazol-4-ylmethyl)piperidine] | 0.009 | –
CN1CCC(=C2c3ccccc3C=Cc3ccccc32)CC1 [5-(1-methylpiperidylidene-4)-5H-dibenzo(a,d)cyclopheptene] | > 10 | –
CNCCc1c[nH]cn1 [N(alpha)-Methylhistamine] | 0.023 | 0.0005
N#Cc1ccc(OCCCN2CCCCC2)cc1 [UCL-2138] | > 10 | –
NC(=NCc1ccc(Cl)cc1)SCCCc1cnc[nH]1 [VUF 9153] | 0.0128 | –
CN(C)CCCSC(=N)N [[3-(carbamimidoylsulfanyl)propyl]dimethylamine] | – | 0.825
